# Reference: ChEMBL document CHEMBL5226375, “Synthesis and Comprehensive in Vivo Activity Profiling of Olean-12-en-28-ol, 3β-Pentacosanoate in Experimental Autoimmune Encephalomyelitis: A Natural Remyelinating and Anti-Inflammatory Agent” (J Nat Prod, 2023)
# Active and inactive are the calls of the source. The rule behind the calls is not given here.
# Columns and labels:
# Mus musculus [1] = test: Anti-inflammatory activity against MOG35-55-induced experimental autoimmune encephalomyelitis C57BL/6 mouse model assessed as fold change in APP gene expression in brain at 600 mg/kg/day, ig for 14 days starting from 12th day of immunization by RT-qPCR analysis relative to control; assay type: functional; details: time 14 day
# Mus musculus [2] = test: Anti-inflammatory activity against MOG35-55-induced experimental autoimmune encephalomyelitis C57BL/6 mouse model assessed as fold change in CCL5 gene expression in brain at 600 mg/kg/day, ig for 14 days starting from 12th day of immunization by RT-qPCR analysis relative to control; assay type: functional; details: time 14 day
# Mus musculus [3] = test: Anti-inflammatory activity against MOG35-55-induced experimental autoimmune encephalomyelitis C57BL/6 mouse model assessed as fold change in PLP gene expression in brain at 600 mg/kg/day, ig for 14 days starting from 12th day of immunization by RT-qPCR analysis relative to control; assay type: functional; details: time 14 day
# Mus musculus [4] = test: Anti-inflammatory activity against MOG35-55-induced experimental autoimmune encephalomyelitis C57BL/6 mouse model assessed as fold change in CXCL10 gene expression in brain at 600 mg/kg/day, ig for 14 days starting from 12th day of immunization by RT-qPCR analysis relative to control; assay type: functional; details: time 14 day
# Mus musculus [5] = test: Anti-inflammatory activity against MOG35-55-induced experimental autoimmune encephalomyelitis C57BL/6 mouse model assessed as fold change in H2EB1 (HLA-DRB1) gene expression in brain at 600 mg/kg/day, ig for 14 days starting from 12th day of immunization by RT-qPCR analysis relative to control; assay type: functional; details: time 14 day
# Mus musculus [6] = test: Anti-inflammatory activity against MOG35-55-induced experimental autoimmune encephalomyelitis C57BL/6 mouse model assessed as fold change in GFAP gene expression in brain at 600 mg/kg/day, ig for 14 days starting from 12th day of immunization by RT-qPCR analysis relative to control; assay type: functional; details: time 14 day
# Mus musculus [7] = test: Anti-inflammatory activity against MOG35-55-induced experimental autoimmune encephalomyelitis C57BL/6 mouse model assessed as fold change in C1S gene expression in brain at 300 mg/kg/day, ig for 14 days starting from 12th day of immunization by RT-qPCR analysis relative to control; assay type: functional; details: time 14 day
# Mus musculus [8] = test: Anti-inflammatory activity against MOG35-55-induced experimental autoimmune encephalomyelitis C57BL/6 mouse model assessed as reduction in serum chemokines level by measuring reduction in CCL5 level at 600 mg/kg/day, ig for 14 days starting from 12th day of immunization by ELISA; assay type: functional, organism-based; details: time 14.0 day
# Mus musculus [9] = test: Anti-inflammatory activity against MOG35-55-induced experimental autoimmune encephalomyelitis C57BL/6 mouse model assessed as fold change in IL6 gene expression in brain at 300 mg/kg/day, ig for 14 days starting from 12th day of immunization by RT-qPCR analysis relative to control; assay type: functional; details: time 14 day
# Mus musculus [10] = test: Anti-inflammatory activity against MOG35-55-induced experimental autoimmune encephalomyelitis C57BL/6 mouse model assessed as fold change in STAT3 gene expression in brain at 600 mg/kg/day, ig for 14 days starting from 12th day of immunization by RT-qPCR analysis relative to control; assay type: functional; details: time 14 day
# Mus musculus [11] = test: Anti-inflammatory activity against MOG35-55-induced experimental autoimmune encephalomyelitis C57BL/6 mouse model assessed as reduction in TNF-alpha protein expression in brain at 300 to 600 mg/kg/day, ig for 14 days starting from 12th day of immunization by western blot analysis; assay type: functional, organism-based; details: dose 300-600 mg/kg/day, time 14.0 day
# Mus musculus [12] = test: Anti-inflammatory activity against MOG35-55-induced experimental autoimmune encephalomyelitis C57BL/6 mouse model assessed as reduction in serum chemokines level by measuring reduction in […] level at 600 mg/kg/day, ig for 14 days starting from 12th day of immunization by ELISA; assay type: functional, organism-based; details: time 14.0 day
# Mus musculus [13] = test: Anti-inflammatory activity against MOG35-55-induced experimental autoimmune encephalomyelitis C57BL/6 mouse model assessed as fold change in GFAP gene expression in brain at 0.15 mg/kg/day, ig for 14 days starting from 12th day of immunization by RT-qPCR analysis relative to control; assay type: functional; details: time 14 day
# Mus musculus [14] = test: Anti-inflammatory activity against MOG35-55-induced experimental autoimmune encephalomyelitis C57BL/6 mouse model assessed as reduction in EAE symptoms by measuring reduction in clinical score at 0.15 to 0.3 mg/kg/day, ig starting from 12th day of immunization and measured on day 14 post-immunization; assay type: functional, organism-based; details: dose 0.15-0.3 mg/kg/day, time 2.0 day
# Mus musculus [15] = test: Anti-inflammatory activity against MOG35-55-induced experimental autoimmune encephalomyelitis C57BL/6 mouse model assessed as fold change in CD4 gene expression in brain at 0.3 mg/kg/day, ig for 14 days starting from 12th day of immunization by RT-qPCR analysis relative to control; assay type: functional; details: time 14 day
# Mus musculus [16] = test: Anti-inflammatory activity against MOG35-55-induced experimental autoimmune encephalomyelitis C57BL/6 mouse model assessed as fold change in NFKB gene expression in brain at 0.15 mg/kg/day, ig for 14 days starting from 12th day of immunization by RT-qPCR analysis relative to control; assay type: functional; details: time 14 day
# Mus musculus [17] = test: Anti-inflammatory activity against MOG35-55-induced experimental autoimmune encephalomyelitis C57BL/6 mouse model assessed as fold change in IL6 gene expression in brain at 0.3 mg/kg/day, ig for 14 days starting from 12th day of immunization by RT-qPCR analysis relative to control; assay type: functional; details: time 14 day
# Mus musculus [18] = test: Anti-inflammatory activity against MOG35-55-induced experimental autoimmune encephalomyelitis C57BL/6 mouse model assessed as fold change in STAT3 gene expression in brain at 0.3 mg/kg/day, ig for 14 days starting from 12th day of immunization by RT-qPCR analysis relative to control; assay type: functional; details: time 14 day
# Mus musculus [19] = test: Anti-inflammatory activity against MOG35-55-induced experimental autoimmune encephalomyelitis C57BL/6 mouse model assessed as fold change in CXCL9 gene expression in brain at 0.15 mg/kg/day, ig for 14 days starting from 12th day of immunization by RT-qPCR analysis relative to control; assay type: functional; details: time 14 day
# Mus musculus [20] = test: Anti-inflammatory activity against MOG35-55-induced experimental autoimmune encephalomyelitis C57BL/6 mouse model assessed as reduction in serum chemokines level by measuring reduction in CXCL1 level at 0.3 mg/kg/day, ig for 14 days starting from 12th day of immunization by ELISA; assay type: functional, organism-based; details: time 14.0 day
# Mus musculus [21] = test: Anti-inflammatory activity against MOG35-55-induced experimental autoimmune encephalomyelitis C57BL/6 mouse model assessed as fold change in C1S gene expression in brain at 0.15 mg/kg/day, ig for 14 days starting from 12th day of immunization by RT-qPCR analysis relative to control; assay type: functional; details: time 14 day
# Mus musculus [22] = test: Anti-inflammatory activity against MOG35-55-induced experimental autoimmune encephalomyelitis C57BL/6 mouse model assessed as fold change in MMP9 gene expression in brain at 0.3 mg/kg/day, ig for 14 days starting from 12th day of immunization by RT-qPCR analysis relative to control; assay type: functional; details: time 14 day
# Mus musculus [23] = test: Anti-inflammatory activity against MOG35-55-induced experimental autoimmune encephalomyelitis C57BL/6 mouse model assessed as proportion of brain infiltrating cells expressing CD45+/CD11b/c high surface markers at […]/day, ig for 14 days starting from 12th day of immunization by flow cytometry (reference value: 87.7%); assay type: functional; details: time 14 day
smiles,measurement,setting,value
CCCCCCCCCCCCCCCCCCCCCCCCC(=O)O[C@H]1CC[C@]2(C)[C@H]3CC=C4[C@@H]5CC(C)(C)CC[C@]5(CO)CC[C@@]4(C)[C@]3(C)CC[C@H]2C1(C)C,fold change (FC),Mus musculus [1],1.28
same,fold change (FC),Mus musculus [2],1.27
same,fold change (FC),Mus musculus [3],1.14
same,fold change (FC),Mus musculus [4],1.93
same,fold change (FC),Mus musculus [5],11.4
same,fold change (FC),Mus musculus [6],1.79
same,fold change (FC),Mus musculus [7],1.63
same,Activity,Mus musculus [8],Active
same,fold change (FC),Mus musculus [9],3.18
same,fold change (FC),Mus musculus [10],1.32
same,Activity,Mus musculus [11],Active
same,Activity,Mus musculus [12],Active
CCCCCCCCc1ccc(CCC(N)(CO)CO)cc1 [FINGOLIMOD],fold change (FC),Mus musculus [13],2.62
same,Activity,Mus musculus [14],Active
same,fold change (FC),Mus musculus [15],2.12
same,fold change (FC),Mus musculus [16],2.04
same,fold change (FC),Mus musculus [17],-2.28
same,fold change (FC),Mus musculus [18],1.87
same,fold change (FC),Mus musculus [19],2.86
same,Activity,Mus musculus [20],Active
same,fold change (FC),Mus musculus [21],1.91
same,fold change (FC),Mus musculus [22],4.44
same,Activity,Mus musculus [23],46.6%
